Test results reported in patent US10987377B2, “Use of inhaled gaseous nitric oxide as a mucolytic agent or expectorant” (Advanced Inhalation Therapies (AIT), Ltd., priority 2004, dated 2021).
Values joined by “and” are separate entries in the source; they are usually repeats but may differ in a detail not shown here. Equal entries are not always repeated.

Columns and labels:
healthy bovine = experiment: Preliminary experiments with healthy bovine, prevention of mucus accumulation; format: in vivo; conditions: inhaled
From the text: Additionally, inhaled nitric oxide containing gas may act as a preventative measure in the accumulation of mucus in the airways. […] Such a risk may be associated with recent infection and/or contact with other infected mammals. […] The delivery of inhaled nitric oxide containing gas may be administered to these risk mammals in order to prevent mucus accumulation in the airway. Effective therapeutic amounts may also refer to an amount sufficient to break down the viscoelastic mucus and increase mucociliary transport in the mammal's airway and to increase MMC in the mammal. Therefore, treating mucus accumulation in the airways of a mammal comprises reducing mucus accumulation, preventing mucus accumulation, reducing mucociliary dyskinesia, and/or preventing mucociliary dyskinesia.

[1] = system: Thoroughbred racehorses with excessive mucus production; experiment: Example 1: inhaled gaseous NO in Thoroughbred racehorses with excessive mucus, endoscopic mucus scoring; format: in vivo, equine; set-up: key to Mucus status: NG = No change in status; conditions: for Side effects: equine study, inhaled administration
From the text: Six (6) Thoroughbred racehorses at a major racing jurisdiction were quarantined for two weeks, and each horse had evidence of excessive mucus production as surveyed by clinical presentation and by endoscopic exam. The horses were isolated from each other and were being medicated daily in series with several broad-spectrum antimicrobials routinely employed for respiratory infections in Equids. The results before the administration with gaseous NO had been unremarkable. […] All six horses were included in the study using gaseous NO.
The horses were brought individually to the veterinary hospital barn for further evaluation over the course of five days. An fiberoptic endoscope was passed to the level of the bifurcation of the trachea (carina-airway) with images recorded on videotape. A scoring system was used to indicate the presence or absence of mucus, as well as its severity, if present. This scoring system has been described by Dixon et. al., “Equine Pulmonary Disease: Ancillary Diagnostic Findings,” Equine Vet. Journal 27, 428-435, 1995, herein incorporated by reference in its entirety. A score of zero indicates the absence of mucus, while a score of 1 to 5 indicates increasing amounts of mucus observed endoscopically in the trachea. The attending Veterinarian conducting the examination did the scoring. All of the six horses scored 4 or higher before the initiation of the treatments.
Treatment intervention of inhaled gaseous Nitric Oxide was administered to all six horses during a five-day period. Five of the horses (#2-#6) received 100 breaths of 10,000 ppm resulting in, based on pulmonary mechanics, a lung concentration of approximately 160 ppm. Horse #1 received 100 breaths of 5000 ppm resulting in 80 ppm on Day #1 and a second administration of 100 breaths of 10,000 ppm on Day #5. Horse #5 received 100 breaths of 10,000 ppm on Day #3 and a second administration of 100 breaths of 10,000 ppm on Day #4.
An outline of the treatment results is provided below in Table No. 1 (with scores when available). […] On a day where a measurement and a treatment occur, such as Day #4 for Horse #5, the measurement was taken before the administration of the second dosage.

[2] = system: Standardbred horses with excessive mucus accumulation; experiment: Example 2: inhalant Nitric Oxide gas in Standardbred horses with excessive mucus accumulation, post race endoscopic mucus score; format: in vivo, equine; set-up: key to Decrease in Mucus Score: Dixon score: 0 = no mucus, 1-5 = increasing mucus; pre minus post
From the text: Twenty-seven Standardbred horses were referred to this study with a history of poor performance and with evidence of excessive mucus accumulation as surveyed by endoscopic exam. This was a single site population study and the subjects served as their own control.
Horses were examined pretreatment by videoendocscopy on a minimum of two consecutive occasions post race, one week or longer between scopings, to document the degree and persistence of mucus residence. The endoscope was passed to the level of the bifurcation of the trachea (carina) with images logged on a video recorder. The Dixon et al. scoring system was used to indicate the presence or absence of mucus, as well as its severity, if present. Zero indicates absence of mucus, and 1 to 5 indicating increasing amounts of mucus observed endoscopically in the trachea. Scoring was done by the veterinarian conducting the examination, then later by another “blinded” individual using the recorded examination.
Treatment via a metered delivery device was provided that included a source of nitric oxide from a pressurized gas cylinder and a delivery interface with the subject's nare. The Nitric Oxide delivery device is enabled by a microprocessor-based computer (Pulmonox Medical Inc, Tofield, Alberta, Canada) wherein a proportionate flow rate of Nitric Oxide gas is delivered based on the horse's tidal volume/minute ventilation with a resulting airway/pulmonary concentration of 160-200 ppm.
Upon enrollment in the study a candidate for the treatment intervention was administered 100 breathes of NO gas as previously described for a minimum of three days. A follow up endoscopic exam on the next available immediate post race was performed and a mucus score assigned. Post race endoscopic exams were continued for several events as a measurable outcome. Depending on the results (i.e. no change or a graded increase in mucus scores) multiple treatment cycles were continued and the results recorded via post race endoscopic exam over the next of several weeks.

bovine = experiment: Preliminary experiments with bovine, mucus hydrolyzed and excreted from the nares; format: in vivo
From the text: Thus, the Applicants believe that inhaled gaseous NO as an effective treatment to excess mucus accumulation in the airways of mammals.

## [N]=O [gNO, Nitric Oxide]
Healthy bovine
  Prevention of mucus accumulation: results in the prevention of mucus accumulation
[1]; Horse #1, Day #2, Tx 100 breaths at 5000 ppm on Day #1
  Mucus score (endoscopic, 0-5): Clear (0)
[1]; Horse #1, Day #3, Tx 100 breaths at 5000 ppm on Day #1
  Return of the previous amount of mucus (amount before administration of gNO), not scored: 25% rtn.
[1]; Horse #1, Day #4, Tx 100 breaths at 5000 ppm on Day #1
  Mucus status: NG
[1]; Horse #1, Day #5, before second Tx (10,000 ppm), Tx 5000 ppm on Day #1
  Mucus status: NG, Tx 10k
[1]; Horse #1, Day #6, Tx 5000 ppm Day #1 and Tx 100 breaths at 10,000 ppm Day #5
  Mucus score (endoscopic, 0-5): Trace (1)
[1]; Horse #2, Day #2, Tx 100 breaths at 10,000 ppm on Day #1
  Mucus score (endoscopic, 0-5): Clear (0)
[1]; Horse #2, Day #3, Tx 100 breaths at 10,000 ppm on Day #1
  Return of the previous amount of mucus (amount before administration of gNO), not scored: 25% rtn.
[1]; Horse #2, Day #4, Tx 100 breaths at 10,000 ppm on Day #1
  Mucus status: NG
[1]; Horse #2, Day #5, Tx 100 breaths at 10,000 ppm on Day #1
  Mucus status: NG
[1]; Horse #3, Day #3, Tx 100 breaths at 10,000 ppm on Day #2
  Mucus score (endoscopic, 0-5): Clear (0)
[1]; Horse #3, Day #4, Tx 100 breaths at 10,000 ppm on Day #2
  Mucus status: NG
[1]; Horse #3, Day #5, Tx 100 breaths at 10,000 ppm on Day #2
  Mucus score (endoscopic, 0-5): Trace (2)
[1]; Horse #4, Day #4, Tx 100 breaths at 10,000 ppm on Day #3
  Mucus score (endoscopic, 0-5): Clear (0)
[1]; Horse #4, Day #5, Tx 100 breaths at 10,000 ppm on Day #3
  Return of the previous amount of mucus (amount before administration of gNO), not scored: 25% rtn.
[1]; Horse #5, Day #4, before second dosage, Tx 100 breaths at 10,000 ppm on Day #3
  Mucus score (endoscopic, 0-5): Clear (0),
[1]; Horse #5, Day #5, Tx 100 breaths at 10,000 ppm on Day #3 and Day #4
  Mucus score (endoscopic, 0-5): Trace (2)
[1]; Horse #5, Day #6, Tx 100 breaths at 10,000 ppm on Day #3 and Day #4
  Mucus score (endoscopic, 0-5): Trace (1)
[1]; Horse #6, Day #6, Tx 100 breaths at 10,000 ppm on Day #5
  Mucus score (endoscopic, 0-5): Trace (2)
[1]; Horses #2 and #4 (25% of the mucus returned, not scored)
  Reduction in mucus from Day #1: 75%
[1]
  Side effects: did not result in any irritation, inflammation or abnormal side effects
[1]; listed as inhaled NO
  Side effects: no untoward side effects were observed
[1]; horses, inhaled
  Observation immediately following administration: non-viscous liquids started to flow out of the nares of the horses
[1]; six equine with excessive mucus accumulation, after inhalation
  Time until non-viscous liquids start to flow out of the nares: 10 to 30 min
[1]; six equine, all subjects
  Reduction of mucus: reductions of mucus to trace levels in all subjects
[2]; horses with recurrence to scores of 2 or more in the weeks following the first treatment
  Response to additional treatment cycles: repeatable marked reduction in mucus scores following treatment
[2]; individual horses 1-27, 100 breaths for a minimum of three days, airway concentration 160-200 ppm, post race endoscopy, Dixon scale 0-5
  Post-Mucus Score (after administering gNO): 2 (6×) and 0 (7×) and 3 (2×) and 4 (2×) and 1 (4×) and 1.5 (2×) and 2.5 (4×)
[2]; individual horses 1-27, pre-score minus post-score, 100 breaths for a minimum of three days, 160-200 ppm
  Decrease in Mucus Score: .5 (7×) and 1 (5×) and 2.5 (2×) and 3 (3×) and 3.5 (2×) and 2 (5×) and 1.5 and 0
[2]; of twenty-seven, Dixon et al. scale
  Number of horses with decrease in score by at least 0.5: Twenty five
[2]; of twenty-seven, after a single treatment cycle
  Number of horses with score reduction of at least 1: Eighteen
[2]; of twenty-seven, single or multiple treatments, transient reduction
  Number of subjects with decrease in mucus score from 2 to 3.5: Twelve
[2]; twenty-seven horses enrolled
  Improvement in mucus scores post treatment: all but two showed significant improvement in their mucus scores
bovine
  Time until mucus is hydrolyzed and excreted from the nares: 10 to 30 min
